Measurements reported in article PMC5520492, “Inhibition of DNA2 nuclease as a therapeutic strategy targeting replication stress in cancer cells” (Oncogenesis, 2017).
“Also recorded” adds a separate entry of the source.

How the values were obtained:
Type in all cases: biochemical
[1] = molecular target: T1, hDNA2, Bloom syndrome and RPA (Homo sapiens, UniProt P51530); assay: Reconstituted 5' DNA end resection assay (2-kb dsDNA degradation); settings: hDNA2 5 nM, Bloom syndrome 5 nM, RPA 100 nM
T1 construct: made in house
T1 sequence (P51530 1-1060): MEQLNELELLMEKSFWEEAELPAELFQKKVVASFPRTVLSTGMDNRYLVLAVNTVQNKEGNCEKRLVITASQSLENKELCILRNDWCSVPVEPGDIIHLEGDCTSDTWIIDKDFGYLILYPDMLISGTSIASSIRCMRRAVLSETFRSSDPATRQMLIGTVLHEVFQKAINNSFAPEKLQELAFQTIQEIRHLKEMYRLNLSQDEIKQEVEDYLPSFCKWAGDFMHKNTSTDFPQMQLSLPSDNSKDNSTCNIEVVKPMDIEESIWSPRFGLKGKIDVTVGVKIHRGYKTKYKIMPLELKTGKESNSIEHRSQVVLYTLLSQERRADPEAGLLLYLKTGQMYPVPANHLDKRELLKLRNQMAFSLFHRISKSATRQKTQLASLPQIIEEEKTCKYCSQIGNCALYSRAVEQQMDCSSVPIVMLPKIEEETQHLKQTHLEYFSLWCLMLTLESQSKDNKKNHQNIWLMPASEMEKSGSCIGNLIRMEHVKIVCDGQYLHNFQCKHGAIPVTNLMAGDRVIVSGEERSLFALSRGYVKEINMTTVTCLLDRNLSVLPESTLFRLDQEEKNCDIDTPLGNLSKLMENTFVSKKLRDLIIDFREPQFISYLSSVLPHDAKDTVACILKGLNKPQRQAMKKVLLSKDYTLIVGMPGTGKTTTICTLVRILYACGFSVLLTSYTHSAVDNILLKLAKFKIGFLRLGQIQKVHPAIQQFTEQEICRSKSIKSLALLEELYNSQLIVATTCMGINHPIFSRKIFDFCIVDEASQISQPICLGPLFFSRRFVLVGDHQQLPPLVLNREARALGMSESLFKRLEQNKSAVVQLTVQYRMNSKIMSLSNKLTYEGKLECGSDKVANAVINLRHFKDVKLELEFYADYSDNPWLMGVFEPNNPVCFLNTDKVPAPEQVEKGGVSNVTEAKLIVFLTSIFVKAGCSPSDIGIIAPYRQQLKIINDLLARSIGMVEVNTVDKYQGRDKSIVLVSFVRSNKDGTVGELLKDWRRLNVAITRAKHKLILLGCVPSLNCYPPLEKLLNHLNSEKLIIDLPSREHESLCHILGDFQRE
Procedure: Figure 3 Validation of the top two inhibitors identified from the high-throughput screen. […] (b, c) Dose-response curves for indicated compounds, cell based (U2OS cell line) (b) and in vitro (c). The IC50 value and the protein concentration used are indicated. Triple labeled substrate (0.1 μM) as in Figure 2a was used. The concentration range of inhibitors was 0.003–666.67 μM. […] The asterisks denote the radiolabel. Plotted are the average data from three independent experiments and the error bars represent 1 s.d.
(§1) Nuclease assays were performed in buffer R (20 mM Na-HEPES pH 7.5, 1 mM ATP, 0.1 mM DTT, 100 μg/ml bovine serum albumin, 0.05% Triton X-100, 2 mM MgCl2, 100 mM KCl) and contained 0.5 nM ends (2-kb substrate) or 5 nM ends (the ssDNA oligonucleotide PSOL6929) of DNA. Reactions containing Bloom syndrome also included an ATP regenerating system consisting of 10 mM creatine phosphate and 50 μg/ml creatine kinase. […] Gels were dried onto DEAE paper on top of Whatman filter paper (GE, Issaquah, WA, USA) and then analyzed in a BioRad Personal Molecular Imager FX phosphorimager. Band intensity was quantified using Image Lab software (Bio-Rad, Hercules, CA, USA). The fraction of DNA substrate digested was determined by measuring the amount of substrate remaining and normalizing to the total substrate in the negative control lane containing no protein.

hDNA2 [2] = molecular target: T2, hDNA2 (Homo sapiens, UniProt P51530); assay: 5' flap processing by hDNA2; settings: DNA2 […], Y DNA substrate 5 nM ends
T2 construct: made in house
T2 sequence (P51530 1-1060): T1 sequence (P51530 1-1060)
Procedure: as §1, with “kinase. In control reactions, DMSO was used in place of the inhibitor. Reactions with DNA2 alone were incubated at 30 °C, and those with DNA2-Bloom syndrome-Replication protein A and EXO1 were incubated at 37 °C for the indicated times.” for “kinase.”
Figure S2. […] (b) Plots showing quantitation of the experiments shown in a. […] (d) Plots showing quantitation of the experiments shown in c. […] (f) Plot showing quantitation of the experiment in e. […]

hDNA2 [3] = molecular target: T2, hDNA2; assay: ATPase activity of hDNA2 (TLC); settings: inhibitor 10 µM, 100 nM hDNA2
Procedure: Figure S2. […] (a) Analysis of 5’ flap processing by hDNA2 in presence of the compounds at the indicated concentration. DNA2 (2.5 nM) was incubated with the Y DNA substrate (5 nM ends) and the indicated concentration of inhibitor. (b) Plots showing quantitation of the experiments shown in a. Plotted are the average data from three independent experiments with the error bars representing one standard deviation. (c) Analysis of dsDNA unwinding by BLM. BLM (4, 8 and 16 nM), RPA (100 nM) and internally radiolabelled dsDNA (0.5 nM ends) was incubated for 20 min at 37^ºC in presence of either DMSO or NSC-105808 (10 µM) and the products were resolved on a 1% agarose gel. (d) Plots showing quantitation of the experiments shown in c. Plotted are the average data from three independent experiments with the error bars representing one standard deviation. (e) Analysis of the degradation of a 2 kb internally labeled dsDNA (0.5 nM ends) by EXO1 (5 nM) in presence of NSC-105808 (10 µM). (f) Plot showing quantitation of the experiment in e. […] 100 nM hDNA2 was incubated with γ^32P-ATP in the presence of oligonucleotide ssDNA (200 nM) for 20 minutes at 37^ºC in presence of either DMSO or inhibitor (10 µM) and the products were resolved on a TLC plate. (h) Analysis of hDNA2 binding to DNA. […]

| SMILES | Resection in the reconstituted system [1] | 5′ flap processing by hDNA2 (hDNA2 [2]) | Effect on ATPase activity of DNA2 (hDNA2 [3]) |
| --- | --- | --- | --- |
| NC1=C(Br)C(=O)c2ncccc2C1=O [NSC-105808, 6-amino-7-bromoquinoline-5,8-dione] | inhibited | inhibited | do not affect; also recorded: no effect |
| O=C1C(=O)c2cc([N+](=O)[O-])ccc2-c2ccccc21 [NSC-5195242, 2-nitrophenanthrene-9,10-dione] | inhibited | inhibited | do not affect |
